Test results as given in publication PMC6271780, “Determination of Bioactive Components in Chinese Herbal Formulae and Pharmacokinetics of Rhein in Rats by UPLC-MS/MS” (Molecules, 2014).

Assays:
[1] = Comparative pharmacokinetics of rhein in rats after oral rhein, rhubarb or SHXXT (plasma, UPLC-MS/MS); format: in vivo, Sprague-Dawley rats
From the text: All animal experimental protocols were reviewed and approved by the Institutional Animal Care and Use Committee (IACUC number: 1011202) of National Yang-Ming University. Male specific pathogen-free Sprague-Dawley rats were obtained from the Laboratory Animal Center of the National Yang-Ming University, Taipei, Taiwan. The animals had free access to food (laboratory rodent diet 5P14, PMI Feeds, Richmond, IN, USA) and water. For pharmacokinetic study, Sprague-Dawley rats weighing 220 ± 20 g were anesthetized with pentobarbital (50 mg/kg, i.p.) for cannulation. A polyethylene tube (PE50) was implanted into the left carotid artery for blood sampling. The cannula was exteriorized, fixed in the dorsal region of the neck. Patency of the tube was maintained by flushing with heparinized saline (20 IU/mL). After surgery, the rats were kept in cages individually and allowed to recover for one day. The dose of herbal formula for translation from human to animal is recommended by the US Food and Drug Administration guidelines as the following conversion equation : Human equivalent dose (HED, mg/kg) = animal dose (mg/kg) × (animal Km/human Km). Study on pharmacokinetics of rhein at 50, 100, and 200 mg in human (60 kg in adults) has been investigated, and therefore, rhein at 11.9 mg/kg was studied in this study according to the dose translation equation. Briefly, the pure compound rhein, the rhubarb extract, and the SHXXT formula suspended in water at doses of 11.9 mg/kg, 5.2 g/kg, and 5 g/kg were individually administered to rats by oral gavage. The doses of rhubarb extract and SHXXT extract were equivalent to rhein administration dose of 11.9 mg/kg. About 200 µL of blood samples was withdrawn from the cannula implanted in the carotid artery and placed into a heparin-rinsed vial at 0, 15, 30, 45, 60, 90, 120, 150, 180, 240, 300 and 360 min. The method of plasma sample preparation was slightly modified from the previous study. For quantitative analysis, the plasma sample (50 µL) was vortex-mixed with acetonitrile (100 µL) for protein precipitation. Data from these samples were used to construct the pharmacokinetic curve of rhein. The plasma sample was diluted by blank plasma sample at an appropriate ratio before analysis if the rhein concentration was excess 2500 ng/mL. Pharmacokinetic calculations were performed on each individual set of data using the pharmacokinetic software WinNonlin Standard Edition, version 1.1 (Pharsight Corp., Mountain View, CA, USA) by noncompartmental methods.

[2] = set-up: method as in PMID 21945452; details: Chinese healthy subjects, single oral administration, range 50–200 mg; cited from earlier work
[3] = set-up: method as in PMID 19737807; details: after SHXXT; cited from earlier work
[4] = set-up: method as in PMID 24214833; details: cited from earlier work; for detection in rat plasma, decoction group: after oral administration of SHXXT decoction; for detection in rat plasma, maceration group: after oral administration of SHXXT maceration
[5] = after oral administration of SHXXT
[6] = male, Sprague-Dawley, po, rhein in rat plasma, rhein 11.9 mg/kg, rhubarb 5.2 g/kg or SHXXT 5 g/kg (each equivalent to rhein 11.9 mg/kg), n = 6, mean ± SD
[7] = rhein in rat plasma, p.o., rhein 11.9 mg/kg, rhubarb 5.2 g/kg or SHXXT 5 g/kg (each equivalent to rhein 11.9 mg/kg), n = 6, mean ± SD

Compound | free (unconjugated) form detected in rat plasma [1, 5] | detection in rat plasma, decoction group [4] | detection in rat plasma, maceration group [4] | also measured
O=C(O)c1cc(O)c2c(c1)C(=O)c1cccc(O)c1C2=O [Rhein, 4,5-dihydroxy-9,10-dioxoanthracene-2-carboxylic acid] | existed in the free form | – | – | MRT ([1]; male, Sprague-Dawley, po, rhein in rat plasma, p.o., rhein 11.9 mg/kg, rhubarb 5.2 g/kg or SHXXT 5 g/kg (each equivalent to rhein 11.9 mg/kg), n = 6, mean ± SD, read-out: MRT (mean residence time) (converted)): 1.87 h; half-life ([1]; male, Sprague-Dawley, po, rhein in rat plasma, p.o., rhein 11.9 mg/kg, rhubarb 5.2 g/kg or SHXXT 5 g/kg (each equivalent to rhein 11.9 mg/kg), n = 6, mean ± SD, read-out: T1/2 (elimination half-life)): 2.4 ± 0.287 h; AUC [1, 6]: 3130 ng·h/mL; Cmax [1, 6]: 2450 ± 550 ng/mL; Tmax [1, 6]: 0.417 h; CL (total body clearance) [1, 7]: 58 ± 7.89 mL/min/kg; Vss (volume of distribution) [1, 7]: 12.2 ± 2.10 L/kg; dose linearity of pharmacokinetics [2]: linear pharmacokinetics
Cc1cc(O)c2c(c1)C(=O)c1cc(O)cc(O)c1C2=O [emodin] | not detected | – | – | forms determined in serum [3]: only the conjugated metabolites
COc1cc2c(cc1OC)-c1cc3ccc(OC)c(OC)c3c[n+]1CC2 [palmatine] | – | detected | absent | free (unconjugated) form detected in rat plasma ([1]; rat, in vivo, po): not detected
O=C(O)[C@H]1O[C@@H](Oc2cc3oc(-c4ccccc4)cc(=O)c3c(O)c2O)[C@H](O)[C@@H](O)[C@@H]1O [baicalin] | not detected | – | – | –
c1c2c(cc3c1OCO3)-c1cc3ccc4c(c3c[n+]1CC2)OCO4 [coptisine] | – | detected | absent | –
O=c1cc(-c2ccccc2)oc2cc(O)c(O)c(O)c12 [baicalein] | not detected | – | – | forms determined in serum [3]: only the conjugated metabolites
COc1ccc2cc3[n+](cc2c1OC)CCc1cc2c(cc1-3)OCO2 [berberine] | not detected | detected | absent | –
COc1cc2c(cc1O)CC[n+]1cc3c(OC)c(OC)ccc3cc1-2 [jatrorrhizine] | – | detected | absent | –
